Assay results: US20090131513A1, “ANTI-INFLAMMATORY MODALITIES” (Novogen Research Pty Ltd., priority 2005, published 2009)

Columns and labels:
[1] = tested on: NO synthesis in mouse macrophage cell line RAW 264.7; test: Inhibition of nitric oxide synthesis (Griess reaction); format: cell-based; details: 10 μM
Protocol: Exposure of various cells (e.g. macrophages and smooth muscle cells) to bacterial LPS and proinflammatory cytokines induces iNOS which generates NO. NO production can be indirectly quantified by measurement of nitrite (NO2—), a stable breakdown product of NO. The mouse macrophage cell line RAW 264.7 was cultured in DMEM supplemented with FCS, 2 mM glutamine and 50 U/ml penicillin/streptomycin. Cells were treated with either test compound at 10 μM (in 0.125% DMSO) or vehicle alone, together with 10 ng/ml LPS. After incubation for 24 hrs, culture media was collected and analysed immediately for NO concentration using the Griess reaction (Eigler et al. 1995).

[2] = tested on: inflammed rat air pouches (serum-treated zymozan); test: Rat air pouch assay; format: in vivo, rats (Dark Agouti); details: 0.5 ml of 100 μM into pouch; for Leucocytes in lavage fluid (×10^−7): lavage at 4 h
Protocol: An alternative assay used to measure anti-inflammatory efficacy is the air pouch model which involves the repeated subcutaneous injection of air into the dorsum of rats followed 24 h later by the intrapouch injection of an inflammatory stimulus (Gilroy et al. 1998).
Air pouches were raised on the dorsum of female Dark Agouti rats, approximately 7 weeks of age. To promote the formation of a cellular membrane lining the inside of each pouch, the pouches were maintained by re-inflating on days 2 and 5 after the initial injection of air. On re-inflation, the pouch was first deflated to ensure the needle was positioned correctly, before being re-inflated with 2 mL of sterile air. Using this protocol, the pouches remained inflated until use on day 7, when they were injected with 0.5 ml of either test compound at 100 μM or vehicle control. After 15 min, air pouches were injected with serum-treated zymozan (STZ-500 μg). Lavage of the air pouch (4×2 ml lavages) was performed at 4 h and leucocytes counted, after which the rats were killed, the air pouch excised and processed in formalin for histology. The sections were blinded to the person counting. Using a graticule with 100 squares and the 40× objective, the number of polymorphs were counted in the pouch lining at 10 different and non-adjacent sites. Group sizes were 5-6 rats. Data were analysed for statistical significance within each experiment and using an unpaired t test.

[3] = tested on: AA-induced ear inflammation; test: Murine ear inflammation induced by arachidonic acid; format: in vivo, mice (BALB/c); details: for Increase in ear thickness (mean ± SD, ×0.01 mm): 25 mg/kg i/p, 1 hr post-AA application; for AA-induced ear inflammation / ear thickness compared with vehicle, in words: mouse, in vivo
From the text: Compounds were examined for their ability to inhibit ear swelling in mice induced by the topical application of arachidonic acid (AA). The inflammatory response due AA, the immediate precursor of the eicosanoids, is due to formation of AA metabolites via both the cyclooxygenase (COX) and lipoxygenase (LOX) pathways (Young et al. 1984). AA induces an increase in both PGE2 and LTC4 synthesis which precedes the increase in ear thickness (Opas et al. 1985; Chang et al. 1986).
Female BALB/c mice (ARC, WA, Australia), weighing 15-21 g were injected with Compound 2 delivered in polyethylene glycol (PEG) 400:phosphate buffered saline (PBS) 1:1 intraperitoneally (i/p) at a dose of 25 mg/kg either 30 min prior to or immediately before the application of AA to the ears. Mice were anaesthetized using isoflurane and baseline thickness of both ears was measured using a spring micrometer. Each mouse received a total of 20 μL of AA in ethanol (50 mg/ml) applied to the inner and outer surfaces of each pinna (i.e. 0.5 mg AA per ear). Mice were anaesthetized again to remeasure the ears at 1 hr post-AA application.
The difference in ear swelling pre- and post-application of AA for each ear was calculated, and the average for the two ears of each mouse calculated. The difference in mean swelling of each test group compared to the group given vehicle alone was calculated using a two-tailed unpaired t test (Prism 4, GraphPad Software).

[4] = tested on: UV irradiation-induced skin oedema; test: Murine model of UV irradiation-induced skin oedema; format: in vivo, mice (Skh:hr-1 albino); details: for Increase in skin thickness (mean ± SD, ×0.01 mm): topical 0.2 ml of 20 μM at 30 min, 2 h, 4 h
From the text: Groups of 4-5 female Skh:hr-1 albino mice were irradiated with 1×3 MEdD (minimal edematous dose) of solar simulated UV radiation (SSUV). Solar-simulated ultraviolet radiation (SSUV) was provided by a planar bank of 6 UVA tube (Hitachi 40 W F40 T 10/BL, black light) and one UVB tube (Philips TL 40 W/12 RS) with radiation filtered through a sheet of 0.125 mm cellulose acetate (Eastman Chemical Products, Kingport, Term, USA) to give 2.96×10-4 W/cm2 UVA and 1.59×10-5 W/cm2 UVB. During irradiation, the cages were rotated below the lights to reduce the variation in radiation intensity in different positions.
Either test compound (0.2 ml of a 20 μM solution) or vehicle (propylene glycol/ethanol/water 1:2:1) was applied to the irradiated dorsal skin at 30 min, 2 h and 4 h post-irradiation. Dorsal skin fold measurements were made with a spring micrometer prior to and at 24 hr and 48 h post-UV exposure. The difference in skin thickness pre- and post-exposure to UVR was calculated for each mouse, and the differences examined between test compound and vehicle control were analysed using an unpaired two-tailed t test.

[5] = tested on: inflammed rat air pouches (serum-treated zymozan); test: Rat air pouch assay; format: in vivo, rats (Dark Agouti); details: At 1 mM application
DSS-induced colitis = test: Murine model of DSS-induced colitis; format: in vivo, mice (BALB/c); details: for ulceration of the posterior colon (mice affected): vehicle 3/8; for mean clinical score versus vehicle: Experiment 3, 11 (p=0.0252); for colonic inflammation, in words: series of experiments, 1.0-1.25 mg/kg single oral dose per day
Protocol: Female BALB/c mice, 6-7 weeks old, were housed for a minimum of one week before any experimental work began. To induce colitis, dextran sulphate sodium (DSS—molecular weight 40 kD, TdB Consultancy AB, Uppsala, Sweden (Dieleman et al. 1994), was administered fresh daily in the drinking water at a concentration of 4.5-5% for 5 days (Okayasu et al. 1990), after which water alone was given. This regime induced mild colitis, evidenced by diarrhea and rectal bleeding, the severity of which was scored, as well as a reduction in the length of the colon. Histologically, colonic inflammation was evidenced by ulceration and an infiltration of neutrophils into the mucosa, which was also scored. The systemic effect of the colitis causes weight loss, which was also monitored.
Either vehicle (PEG 400:PBS1:1) Compounds 1 or 4 were administered at a dose rate of 1 mg/kg throughout the experiment until the mice were killed at day 17.
Either Compounds 1 and 2, at a dose of 1 mg/kg or vehicle were administered for 10 days prior to DSS being added to the drinking water to induce colitis, after which test compound was stopped. DSS was administered for 5 days and the mice killed 8 days later (day 23).
Either the cis or the trans isomers of Compound 3 (Compound 3a and 3b respectively) at 1.25 mg/kg or vehicle were administered throughout the experiment until the mice were killed at day 17.

NFκB promoter activity = test: Inhibition of NFκB promoter activity (β-lactamase reporter) in TNFα-stimulated THP-1 cells; format: cell-based, human; details: 5 h
Protocol: Human macrophage THP-1 cells, modified to include the β-lactamase reporter gene, were seeded into wells of a 96-well plate (50×10^3 cells/well) in the presence of RPMI 1640 medium (70 μl). TNFα (7.5 ng/ml) and human sera (final concentration of 20%) were added to each well. Plates were incubated for 5 h at 37° C. to allow for NFkB-stimulated β-lactamase production. LiveBLAzer™ FRET B/G Substrate (CCF4-AM) was then added to assay for β-lactamase activity. Once CCFA-AM enters a cell, it is converted to negatively charged CCF4 by endogenous esterases. Excitation of this substrate at 409 nm leads to efficient FRET between the coumarin and fluorescein moieties, resulting in a green fluorescence detectable at 530 nm. The presence of β-lactamase leads to cleavage of CCF4 and results in a loss of FRET, resulting in a robust blue fluorescent signal detectable at 460 nm. Thus, activity of beta-lactamase (a marker of NFkB-promoter activity) is measured as a product to substrate ratio (blue/green fluorescence ratio: 460 nm/530 nm).

TX synthase (TXS) = target: T1, TX synthase (TXS) (Homo sapiens, UniProt P24557); test: TXB2 synthesis following addition of exogenous PGH2 to U937 cells; format: cell-based; details: 1, 10, 100 μM, undifferentiated U937 cells, PGH2 5 μM
T1 construct: endogenous in cells; host or cells: undifferentiated U937 cells
T1 sequence (P24557 1-533): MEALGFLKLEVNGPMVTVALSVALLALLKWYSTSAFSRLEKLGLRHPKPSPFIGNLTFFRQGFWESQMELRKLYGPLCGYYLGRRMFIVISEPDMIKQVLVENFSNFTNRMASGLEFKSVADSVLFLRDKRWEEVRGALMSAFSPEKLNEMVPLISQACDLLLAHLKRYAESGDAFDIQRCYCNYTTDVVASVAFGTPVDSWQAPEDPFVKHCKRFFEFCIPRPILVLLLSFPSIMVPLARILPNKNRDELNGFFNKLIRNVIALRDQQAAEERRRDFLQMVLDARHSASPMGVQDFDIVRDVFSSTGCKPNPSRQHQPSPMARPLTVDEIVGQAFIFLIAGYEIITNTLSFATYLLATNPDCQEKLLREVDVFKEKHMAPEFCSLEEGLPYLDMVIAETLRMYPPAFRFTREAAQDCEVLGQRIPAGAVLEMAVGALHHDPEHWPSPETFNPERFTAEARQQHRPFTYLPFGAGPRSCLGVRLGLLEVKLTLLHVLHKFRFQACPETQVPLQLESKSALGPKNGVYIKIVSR
Protocol: To examine effects of test compounds directly on TX synthase (TXS), a different assay system was used. Whereas arachidonic acid (AA) is the substrate for COX, PGH2 is the substrate for TX synthase. To examine directly the effect of these compounds on TXS, exogenous ? elow:
Test compounds at 0 μM, 1 μM, 10 μM and 100 μM (in DMSO) were incubated with undifferentiated U937 cells (6×10^6/ml) for 30 min at 37° C., after which PGH2 (5 μM) was added. After incubation for 10 min, the reaction was terminated by centrifugation and the supernatants were collected and TXB2 production was measured in triplicate by RIA. ANOVA followed by Newman-Keuls multiple comparisons test was used to examine differences between doses and the control values. A statistical significance level of 0.05 was used and differences from control values are indicated by an asterisk (*).

Cc1c(O)ccc2c1OCC(c1ccc(O)cc1)C2O (single isomer, unassigned) [Compound 3a]
NO synthesis, direction of effect in words [1]: inhibited NO synthesis
Polymorphs in tissue sections (per 100 squares) ([2]; 4 h): 17.9 ± 14.2 per 100 squares
Leucocytes in lavage fluid (×10^−7) [2]: 0.47 ± 0.4 ×10^−7
Increase in ear thickness (mean ± SD, ×0.01 mm) [3]: 6.7 ± 2.1 ×0.01 mm
AA-induced ear inflammation / ear thickness compared with vehicle, in words [3]: significant reduction in ear thickness
Increase in skin thickness (mean ± SD, ×0.01 mm) ([4]; 24 hrs post-irradiation): 32 ± 18 ×0.01 mm
Increase in skin thickness (mean ± SD, ×0.01 mm) ([4]; 48 hrs post-irradiation): 69 ± 24 ×0.01 mm
UV-induced inflammation / skin oedema, in words ([4]; both time points (24 and 48 hrs), topical): significantly inhibited skin oedema
number of polymorphs in the tissue sections, in words [5]: suppressed the number of polymorphs
colon length versus vehicle (DSS-induced colitis; Experiment 3, 1.25 mg/kg): significantly longer (p=0.039)
day of switch from mean body weight loss to mean body weight gain (DSS-induced colitis; Experiment 3, 1.25 mg/kg): 4 days
degree of mucosal damage versus vehicle (DSS-induced colitis; Experiment 3, 1.25 mg/kg): significantly lower (p=0.018)
colonic inflammation and its resolution, in words (DSS-induced colitis; Experiment 3, 1.25 mg/kg throughout until day 17): reduced colonic inflammation and hastened its resolution
ulceration of the posterior colon (mice affected) (DSS-induced colitis; Experiment 3, 1.25 mg/kg): not observed
maximum mean weight loss (DSS-induced colitis; Experiment 3, 1.25 mg/kg, vehicle nearly 5%): less than 2%
mean clinical score versus vehicle (DSS-induced colitis; days 8 (p=0.0078), 9 (p=0.0326), 10 (p=0.0386), 15 (p=0.0033), 16 (p=0.0016)): significantly lower
colonic inflammation, in words (DSS-induced colitis): reduced colonic inflammation

Cc1c(O)ccc2c1OCC(c1ccc(O)cc1)C2O (single isomer, unassigned) [Compound 3b]
NO synthesis, direction of effect in words [1]: inhibited NO synthesis
Leucocytes in lavage fluid (×10^−7) [2]: 0.66 ± 0.23 ×10^−7
Increase in ear thickness (mean ± SD, ×0.01 mm) [3]: 7.1 ± 3.0 ×0.01 mm
AA-induced ear inflammation / ear thickness compared with vehicle, in words [3]: significant reduction in ear thickness
Increase in skin thickness (mean ± SD, ×0.01 mm) ([4]; 24 hrs post-irradiation): 56 ± 14 ×0.01 mm
Increase in skin thickness (mean ± SD, ×0.01 mm) ([4]; 48 hrs post-irradiation): 113 ± 25 ×0.01 mm
ulceration of the posterior colon (mice affected) (DSS-induced colitis; Experiment 3, 1.25 mg/kg): 1/8
mean clinical score versus vehicle (DSS-induced colitis; days 8 (p=0.0055), 9 (p=0.0057), 17 (p=0.0177)): significantly lower
colonic inflammation, in words (DSS-induced colitis): reduced colonic inflammation

Cc1cc(O)cc2c1C(=O)C(c1ccc(O)cc1)CO2 (stereo not shown) [Compound 5]
inhibition of NFκB compared to vehicle control (NFκB promoter activity): significantly (p<0.001) inhibited
thromboxane synthase inhibition (TXB2 synthesis after exogenous PGH2), selectivity in words (TX synthase (TXS)): selective thromboxane synthase inhibitors
